Reference: ChEMBL document CHEMBL2407022, “Advancement of Imidazo[1,2-a]pyridines with Improved Pharmacokinetics and Nanomolar Activity Against Mycobacterium tuberculosis” (ACS Med Chem Lett, 2013)
≈ marks a conversion by molar mass, not a printed value. Calls of active or inactive are those of the source. The rule behind the calls is not given here.

Tests used:
[1] = test system: Mycobacterium tuberculosis; experiment: Antimycobacterial activity against Mycobacterium tuberculosis H37Rv expressing pCHERRY3 after 4 days by plate format assay; assay type: functional; settings: 96 h
[2] = test system: Mycobacterium tuberculosis; experiment: Antimycobacterial activity against drug-sensitive Mycobacterium tuberculosis clinical isolate 1 after 14 days; assay type: functional; settings: clinical isolate 1, 336 h
[3] = Half life in Balb/c mouse at 10 mg/kg, po; assay type: ADME, organism-based; set-up: dose 10 mg/kg, route oral; settings: in vivo
[4] = test system: Mycobacterium tuberculosis; experiment: Antimycobacterial activity against isoniazid, rifampin, ethambutol, pyrazinamide, streptomycin, kanamycin and p-aminosalicylic acid-resistant Mycobacterium tuberculosis after 14 days; assay type: functional; settings: 336 h
[5] = test system: Mycobacterium tuberculosis; experiment: Antimycobacterial activity against Mycobacterium tuberculosis H37Rv expressing pCHERRY3 after 4 days by plate format assay in presence of bovine serum albumin; assay type: functional, organism-based
[6] = molecular target: Cytochrome P450 2C9 (Homo sapiens, UniProt P11712); experiment: Time dependent inhibition of CYP3A4 in human liver microsomes using midazolam as substrate at 10 uM after 10 mins; assay type: ADME, Microsome
Sequence of Cytochrome P450 2C9 (P11712 whole entry): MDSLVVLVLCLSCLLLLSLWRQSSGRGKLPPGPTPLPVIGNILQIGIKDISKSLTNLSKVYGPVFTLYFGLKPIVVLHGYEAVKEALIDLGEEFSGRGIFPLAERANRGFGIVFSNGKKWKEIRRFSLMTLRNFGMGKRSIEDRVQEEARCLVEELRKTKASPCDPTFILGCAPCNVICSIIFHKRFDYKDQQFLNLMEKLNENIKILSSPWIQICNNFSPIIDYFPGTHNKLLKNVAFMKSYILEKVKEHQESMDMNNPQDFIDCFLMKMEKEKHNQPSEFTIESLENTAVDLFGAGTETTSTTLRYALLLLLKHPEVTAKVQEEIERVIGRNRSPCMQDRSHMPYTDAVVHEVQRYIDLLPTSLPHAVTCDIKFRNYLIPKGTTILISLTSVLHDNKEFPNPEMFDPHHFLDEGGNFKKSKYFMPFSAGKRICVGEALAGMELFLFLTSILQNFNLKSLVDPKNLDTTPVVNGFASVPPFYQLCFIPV

[7] = Drug metabolism in rat liver microsomes assessed as monohydroxylations on imidazopyridine at 2 uM after 30 mins by LC/MS/MS analysis; assay type: ADME, Microsome; settings: 0.5 h
[8] = Tmax in Balb/c mouse at 10 mg/kg, po; assay type: ADME, organism-based; set-up: dose 10 mg/kg, route oral; settings: in vivo
[9] = test system: Mycobacterium tuberculosis; experiment: Antimycobacterial activity against drug-sensitive Mycobacterium tuberculosis clinical isolate 2 after 14 days; assay type: functional; settings: clinical isolate 2, 336 h
[10] = Drug metabolism in mouse liver microsomes assessed as monohydroxylations on imidazopyridine at 2 uM after 30 mins by LC/MS/MS analysis; assay type: ADME, Microsome; settings: 0.5 h
[11] = Drug metabolism in human liver microsomes assessed as monohydroxylations on imidazopyridine at 2 uM after 30 mins by LC/MS/MS analysis; assay type: ADME, Microsome; settings: 0.5 h
[12] = Tmax in Balb/c mouse at 3 mg/kg, po; assay type: ADME, organism-based; set-up: dose 3 mg/kg, route oral; settings: in vivo
[13] = test system: Mycobacterium tuberculosis; experiment: Antimycobacterial activity against isoniazid, rifampin, ethambutol, kanamycin and p-aminosalicylic acid-resistant Mycobacterium tuberculosis after 14 days; assay type: functional; settings: 336 h
[14] = Drug metabolism in rat liver microsomes at 2 uM after 30 mins by LC-MS analysis; assay type: ADME, Microsome; settings: read-out: Drug metabolism
[15] = Tmax in Balb/c mouse at 100 mg/kg, po; assay type: ADME, organism-based; set-up: dose 100 mg/kg, route oral; settings: in vivo
[16] = Clearance in Balb/c mouse at 1 mg/kg, iv; assay type: ADME, organism-based; set-up: dose 1 mg/kg, route intravenous; settings: in vivo
[17] = Drug metabolism in human liver microsomes at 2 uM after 30 mins by LC-MS analysis; assay type: ADME, Microsome; settings: read-out: Drug metabolism
[18] = molecular target: CYP2D6 (Homo sapiens, UniProt P10635); experiment: Inhibition of CYP2D6 in human liver microsomes using bufuralol as substrate at 10 uM after 10 mins; assay type: ADME, Microsome; settings: probe bufuralol
Sequence of CYP2D6 (P10635 whole entry): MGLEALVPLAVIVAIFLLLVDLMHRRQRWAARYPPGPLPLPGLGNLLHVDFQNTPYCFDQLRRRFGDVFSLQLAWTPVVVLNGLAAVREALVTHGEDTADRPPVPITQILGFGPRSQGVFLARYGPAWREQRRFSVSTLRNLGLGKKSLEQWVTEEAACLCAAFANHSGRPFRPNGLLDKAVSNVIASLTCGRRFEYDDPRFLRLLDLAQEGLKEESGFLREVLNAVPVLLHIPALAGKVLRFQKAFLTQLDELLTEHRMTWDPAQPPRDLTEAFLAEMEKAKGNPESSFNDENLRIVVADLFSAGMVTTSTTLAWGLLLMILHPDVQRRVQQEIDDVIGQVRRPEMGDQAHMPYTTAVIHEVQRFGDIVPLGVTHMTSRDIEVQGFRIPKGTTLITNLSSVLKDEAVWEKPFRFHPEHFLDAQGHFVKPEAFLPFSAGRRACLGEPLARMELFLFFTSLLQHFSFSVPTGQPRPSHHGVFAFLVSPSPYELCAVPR

[19] = molecular target: CYP3A4 (Homo sapiens, UniProt P11712); experiment: Inhibition of CYP3A4 in human liver microsomes using midazolam as substrate at 10 uM after 10 mins; assay type: ADME, Microsome; settings: probe midazolam
Sequence of CYP3A4 (P11712 whole entry): as the sequence (P11712 whole entry) above

[20] = Half life in Balb/c mouse at 3 mg/kg, po; assay type: ADME, organism-based; set-up: dose 3 mg/kg, route oral; settings: in vivo
[21] = Half life in Balb/c mouse at 100 mg/kg, po; assay type: ADME, organism-based; set-up: dose 100 mg/kg, route oral; settings: in vivo
[22] = Drug metabolism in mouse liver microsomes at 2 uM after 30 mins by LC-MS analysis; assay type: ADME, Microsome; settings: read-out: Drug metabolism
[23] = Drug metabolism in dog liver microsomes at 2 uM after 30 mins by LC-MS analysis; assay type: ADME, Canis lupus familiaris, Microsome; settings: read-out: Drug metabolism
[24] = molecular target: CYP2C9 (Homo sapiens, UniProt P11712); experiment: Inhibition of CYP2C9 in human liver microsomes using diclofenac as substrate at 10 uM after 10 mins; assay type: ADME, Microsome; settings: probe diclofenac
Sequence of CYP2C9 (P11712 whole entry): as above

Cc1ccn2c(C(=O)NCc3ccc(S(N)(=O)=O)cc3)c(C)nc2c1
MIC99 [1]: > 20 µM

COc1cccc(NC(=O)c2c(C)nc3cc(C)ccn23)c1
MIC99 [1]: > 20 µM

Cc1ccn2c(C(=O)NCc3ccc(Oc4ccc(F)cc4)cc3)c(C)nc2c1
MIC99 [2]: < 0.03 µM
half-life [3]: 13.2 h
MIC90 [4]: 0.03 µM (≈ 0.0117 µg/mL)
Activity [5]: Active
inhibition (INH) [6]: Active
Drug metabolism [7]: Active
Tmax [8]: 0.5 h
MIC99 [9]: < 0.03 µM
Drug metabolism [10]: Active
MIC99 [1]: 0.004 µM (≈ 0.00156 µg/mL)
Drug metabolism [11]: Active
Tmax [12]: 0.5 h
MIC99 [13]: < 0.03 µM

Cc1ccc2nc(C)c(C(=O)NCc3ccccc3)n2c1
MIC99 [2]: 0.04 µM (≈ 0.0112 µg/mL)
MIC99 [4]: < 0.04 µM
MIC99 [9]: < 0.04 µM
MIC99 [1]: 0.006 µM (≈ 0.00168 µg/mL)
MIC99 [13]: < 0.04 µM

Cc1ccn2c(C(=O)NCc3ccccc3)c(C)nc2c1
metabolised at 0.5 h, 2 µM [14]: 71%
Activity [5]: Active
MIC99 [1]: 0.2 µM (≈ 0.0559 µg/mL)

Cc1nc2c(C)cccn2c1C(=O)NCc1ccc(Oc2ccc(F)cc2)cc1
MIC99 [1]: 0.1 µM (≈ 0.0389 µg/mL)

O=[N+]([O-])c1cn2c(n1)OC[C@@H](OCc1ccc(OC(F)(F)F)cc1)C2 [PRETOMANID]
MIC99 [2]: 0.5 µM (≈ 0.18 µg/mL)
MIC99 [4]: 0.5 µM (≈ 0.18 µg/mL)
MIC99 [9]: > 13.9 µM
MIC99 [1]: 0.6 µM (≈ 0.216 µg/mL)
MIC99 [13]: 0.5 µM (≈ 0.18 µg/mL)

CO[C@H]1/C=C/O[C@@]2(C)Oc3c(C)c(O)c4c(O)c(c(/C=N/N5CCN(C)CC5)c(O)c4c3C2=O)NC(=O)/C(C)=C\C=C\[C@H](C)[C@H](O)[C@@H](C)[C@@H](O)[C@@H](C)[C@H](OC(C)=O)[C@@H]1C [RIFAMPIN]
MIC99 [1]: 0.003 µM (≈ 0.00247 µg/mL)

Cc1ccc2nc(C)c(C(=O)NCc3ccc(Oc4ccc(F)cc4)cc3)n2c1
MIC99 [1]: 0.005 µM (≈ 0.00195 µg/mL)

COc1cccc(CNC(=O)c2c(C)nc3cc(Cl)ccn23)c1
MIC99 [1]: 1.1 µM (≈ 0.363 µg/mL)

Cc1ccn2c(C(=O)NCc3ncc(C(F)(F)F)cc3Cl)c(C)nc2c1
Tmax [15]: 2 h
metabolised at 0.5 h, 2 µM [14]: 19.3%
clearance [16]: 43.1 mL/min/kg
MIC99 [4]: 6.5 µM (≈ 2.49 µg/mL)
Activity [5]: Active
inhibition (INH) [6]: Active
Drug metabolism [7]: Active
metabolised at 0.5 h, 2 µM [17]: 0%
inhibition at 10 min, 10 µM [18]: 2.8%
Drug metabolism [10]: Active
inhibition at 10 min, 10 µM [19]: 0%
half-life [20]: 5 h
MIC99 [1]: 0.7 µM (≈ 0.268 µg/mL)
Drug metabolism [11]: Active
half-life [21]: 1.93 h
metabolised at 0.5 h, 2 µM [22]: 79.9%
Tmax [12]: 0.25 h
metabolised at 0.5 h, 2 µM [23]: 41.2%
inhibition at 10 min, 10 µM [24]: 11.5%
MIC99 [13]: 0.4 µM (≈ 0.153 µg/mL)

Cc1ccc2nc(C)c(C(=O)NCc3ccc(S(C)(=O)=O)cc3)n2c1
MIC99 [1]: 0.4 µM (≈ 0.143 µg/mL)

C[C@H]1COC2(CCN(c3nc(=O)c4cc(C(F)(F)F)cc([N+](=O)[O-])c4s3)CC2)O1 [BTZ-043]
MIC99 [1]: 0.003 µM (≈ 0.00129 µg/mL)

NNC(=O)c1ccncc1 [ISONIAZID]
MIC99 [1]: 0.3 µM (≈ 0.0411 µg/mL)

Cc1ccc2nc(C(F)(F)F)c(C(=O)NCc3ccc(S(C)(=O)=O)cc3)n2c1
MIC99 [1]: 0.9 µM (≈ 0.37 µg/mL)
